# Data published in patent US20250368639A1, “SOLID FORMS OF A COMPOUND FOR TREATING OR PREVENTING HYPERURICEMIA OR GOUT” (ATOM THERAPEUTICS CO., LTD, priority 2022, published 2025).
# Entries after “also recorded” stand apart in the source; their conditions may differ. Where two headings read alike, the source gives them in different places.
# Experiments:
# [1] = Single-dose pharmacokinetic study, oral and intravenous, in SD rats; assay type: in vivo, SD rat; conditions: for AUC(0-inf): read-out: AUCINF—pred; for half-life: read-out: HL_Lambda_z (T1/2) (converted); for Vd/F: read-out: Vz—F—pred;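 on AUClast: AUClast in h·ng/mL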
# Method: Form 1, Form 2, and Form 5D were each evaluated via a single-dose pharmacokinetic study following oral and intravenous administration in SD rats. […] Form 1, Form 2, and Form 5Dwere evaluated by rat pharmacokinetics study.
# Male SD rat was purchased from Shanghai Sippr B&K Laboratory Animals Co., Ltd. The weight was 180 g˜200 g.
# 20% HP-β-CD was prepared from dissolving20 g of HP-β-CD (from Sigma) in 100 mL purified water. 0.5% CMC-Na was prepared from dissolving 1 g of CMC-Na (from Aladdin) in 200 mL purified water. The solutions were stored at 2-8 degree.
# (§1) Group 1:4.95 mg (equivalent to 4.50 mg of anhydrous free base) of Form 1 was weighed out into a 20 ml bottle, and totally dissolved by 0.225 mL DMSO by sonication. After that, 4.275 mL of 20% HP-β-CD was added, mixed well by sonication. Finally, the pH value was adjusted to 7.0 by sodium hydroxide solution. The clear solution was obtained, and the concentration was 1 mg/mL.
# Group 2:10.08 mg (equivalent to 9.164 mg of anhydrous free base) of Form 1 was weighed out into a 20 ml bottle, and then 9.164 mL of 0.5% CMC-Na was added. A white suspension was formed after sonicated by ultrasonic cell disruptor, and the concentration was 1 mg/mL.
# Group 3:9.47 mg of Form 2 was weighed out into a 20 ml bottle, and then 9.470 mL of 0.5% CMC-Na was added. After sonicated, it was mixed well by homogenizer for 2 minutes. Finally, a white suspension was formed, and the concentration was 1 mg/mL.
# Group 4:9.80 mg (equivalent to 8.909 mg of free base) of Form 5Dwas weighed out into a 20 mL bottle, and then 8.909 mL of 0.5% CMC-Na was added. After sonicated, it was mixed well by homogenizer for 2 minutes. Finally, a white suspension was formed, and the concentration was 1 mg/mL.
# as §1, with “Group 5:1.94” for “Group 1:4.95”, “to 1.763” for “to 4.50”, “by 0.088” for “by 0.225”, “that, 1.675” for “that, 4.275”, “was 0.2” for “was 1”
# The dose of intravenous administration was 1 mg/kg and 5 mg/kg, respectively. The oral dose was 10 mg/kg. Animals were fasted overnight before drug administration. After the drug administration, the rats were fed at the 4 hours.
# About 150˜200 μL of blood was collected at the initial time (only intravenous), and at 0.25, 0.5, 1, 2, 4, 6, 8 and 24 h by jugular venipuncture blooding method. EDTA-K2 was selected as anticoagulant. Blood samples were centrifuged within one hour at 6000 rpm for 8 minutes (placed on wet ice before centrifugation). The supernatant was stored at −20° C. for LC-MS/MS analysis.
# The computer program Microsoft Office Excel 2007 (Microsoft, USA) was used to process data and graphics. The pharmacokinetic parameters were calculated by WinNolin 6.4 software.
# [2] = Dynamic vapor sorption/desorption (DVS); assay type: physicochemical
# Method: Moisture sorption/desorption data were collected on a SMS DVS intrinsic Vapor Sorption Analyzer under a nitrogen purge. The DVS experiment generally includes a moisture sorption step and a moisture desorption step. […] In other words, the sample is considered to have reached an equilibrium between moisture sorption and desorption under the relative humidity when dm/dt≤0.01%. The sample was maintained at the temperature of 25° C. with relative humidity varied from 0% to 95%, and back to 0% at an increment of 5% RH each step.
# [3] = Solubility in water, buffers and bio-relevant media (37° C., 24 h shaking, HPLC); assay type: physicochemical; conditions: 37° C., 24 h
# Method: The solubility of Form 1, Form 2, Form 5D, Form 6, Form 8, and Form 11 was analyzed in water, 0.1NaqueousHCl, pH4.5 acetate buffer solution, pH6.8 phosphate buffer solution, simulated gastric fluid (SGF), Fasted State Simulated Intestinal Fluid (FaSSIF), and Fed State Simulated Intestinal Fluid (FeSSIF).
# About 5 mg or 10 mg of sample was weighed out into each vial and mixed with about 5 ml of medium to form a solution. The target concentration for the potassium salt in water was 2 mg/ml; and the target concentration for all other forms were 1 mg/mL. All samples were kept shaking at 200 rounds per minute (rpm) under 37° C. for 24 hours. The pH value of these samples were determined after shaking for 24 hours. Subsequently, they were centrifuged at the speed of 12000 rpm for 2 mins. The supernatant was diluted with methanol as necessary, and the concentrations were determined by HPLC. When the solubility of potassium salt was tested in water, the supernatant was diluted 100 times, while no other samples were diluted. The HPLC analysis utilizes Agilent Eclipse XDB-C8 4.6*150 mm, 5 μm column at 40° C., a mobile phase of 0.1% TFA: ACN=70:30, an injection volume of 10 μl, a flow rate of 1.0 ml/min, a diluent of methanol, and a detection wavelength of 234 nm.
# [4] = Suspensions for animal formulation in 0.5% CMC-Na (XRPD); assay type: physicochemical; conditions: about 30 mg in 30 ml, sonication
# Method: About 30 mg of Form 1, Form 2, and Form 5D were each added into a respective 40 ml glass bottle and mixed with 30 ml of 0.5% CMC-Na solution. The solids were dispersed uniformly in the solution with the aid of sonication. After that, the solids were isolated by centrifugation, dried at room temperature, and the dry solid analyzed with XRPD.
# [5] = male SD rats, oral 10 mg/kg, Average (Table 10)
# [6] = male, SD, rat, plasma, po, 10 mg/kg, male SD rats, oral 10 mg/kg, Average (Table 10)
# [7] = male, SD, rat, plasma, po, 10 mg/kg, male SD rats, oral 10 mg/kg, individual rats 301/302/303 (c1/c2/c3)
structure (smiles),measurement,setting,value
"CCc1nc2ccccn2c1C(=O)c1cc(Br)c(O)c(C#N)c1 [Form 2, 3-bromo-5-[(2-ethylimidazo[1,2-a]pyridin-3-yl)carbonyl]-2-hydroxybenzonitrile]","Exposure and bioavailability (words, comparison)","[1]; SD rats, oral administration 10 mg/kg, 10 mg/kg",higher dose exposure and bio-availability than Form 1; also recorded: higher exposure (AUC0-1) and better bioavailability than Form 1; also recorded: approximately the same as Form 5D; also recorded: sufficiently high bioavailability
same,AUClast,[1]; [5],88482.4 ng·h/mL
same,Cl—F—pred,[1]; [5],2 mL/min/kg
same,F,"[1]; male SD rats, oral 10 mg/kg, calculated by intravenous administration of 1 mg/kg, Average (Table 10)",50.98%
same,Cmax,[1]; [6],7950 ng/mL
same,MRT last,[1]; [6],6.12 h
same,Tmax,[1]; [6],4 h
same,AUC(0-inf),[1]; [6],89100 ng·h/mL
same,half-life,[1]; [6],3.08 h
same,Vd/F,[1]; [6],0.52 L/kg
same,AUC(0-t),[1]; [7],108000 ng·h/mL
same,Cmax,[1]; [7],8490 ng/mL
same,MRT last,[1]; [7],6.15 h
same,Tmax,[1]; [7],4 h
same,AUC(0-inf),[1]; [7],92400 ng·h/mL
same,half-life,[1]; [7],3.32 h
same,Vd/F,[1]; [7],0.45 L/kg
same,DVS (80% RH),"[2]; 25° C., 80% RH",0.40%
same,Water remaining within the sample (DVS desorption),[2]; relative humidity decreased back to 0%,about 3.4%
same,Hygroscopicity (DVS),[2]; relative humidity less than 80%,low hygroscopicity
same,Crystal form after DVS analysis (XRPD),[2]; sample following DVS analysis,converted into Form 1
same,Water absorbed (DVS),[2]; when relative humidity reached 85% RH,about 3.8%
same,Solubility,[3]; 0.1N HCl,3.8 µg/mL
same,Highest concentration among the media,[3],around 40 μg/ml
same,Solubility in the buffer solution and bio-relevant medium,[3],low solubilities
same,Solubility,[3]; FaSSIF,41.8 µg/mL
same,Solubility,[3]; FeSSIF,2.8 µg/mL
same,Solubility,[3]; SGF,3.0 µg/mL
same,Solubility,[3]; Water,20.0 µg/mL
same,Solubility,[3]; pH 4.5 acetate buffer,<1 µg/mL
same,Solubility,[3]; pH 6.8 phosphate buffer,24.1 µg/mL
same,Crystal form after dispersion in 0.5% CMC-Na solution (XRPD),[4],transformed into Form 1
